Laboratory results: patent US5380715A, “Ap4 A as a hypotensive agent” (Fujirebio Inc., priority 1992, dated 1995)
Entries after “also recorded” stand apart in the source; their conditions may differ.

Legend:
dogs = assay: Gradual hypotension during anesthesia in dogs (hemodynamics, blood gas); format: in vivo, mongrel dogs; conditions: dog
Procedure: Dogs were anesthetized with enflurane. […] The mean blood pressure (B.P.), heart rate (H.R.), cardiac output (C.O.), arterial oxygen tension (PaO2), mixed venos oxygen tension (PvO2), arterial carbonate tension (PaCO2), mixed venous carbonate tension (PvCO2), arterial pH (pH-a), mixed venous pH (pH-v), and base excess thereof were measured.
Mongrel dogs weighing 9 to 17 kg were anesthetized with intravenous thiopental 20 mg/kg by bolus injection, followed by 1% enflurane in 40% O2 /N2 after endotracheal intubation. […] Bilateral femoral arteries were catheterized, one for the determination of blood pressure and the other for blood sampling.
Access to the bilateral femoral veins was obtained for the administration of Ap4A, PG E1 or nitroglycerin and for the insertion of a ballon-tipped thermodilution catheter. The electrocardiogram was continuously monitored. The control values were obtained before the administration of each of the above-mentioned three agents. Each agent was administered using a syringe pump at titrated doses to produce gradual 20%, 40%, 50%, 60%, and 80% decreases in the mean arterial pressure (MAP) from the control value.
After the target blood pressure and stable hemodynamic conditions were reached, the following parameters were measured: heart rate (HR), mean pulmonary artery pressure (PAM), pulmonary capillary wedge pressure (PCWP), and central venous pressure (CVP). Cardiac output (CO) was determined by the thermodilution method. Gas analyses of arterial and mixed venous bloods were performed using a blood gas analyzer.

rats [1] = assay: Gradual hypotension during anesthesia in rats; format: in vivo, male SD rats; conditions: rat, enflurane
Procedure: Male SD rats (Charles River Japan Inc.) were anesthetized with intravenous thiopental 50 mg/kg as a bolus, followed by 1% enflurane in air.
A femoral artery was catheterized to monitor the blood pressure and heart rate, while a femoral vein was catheterized for the administration of each of the test drugs.
(§1) The control values were obtained before the administration of each test drug. Each test drug was then administered using a syringe in a dose-dependent manner for 15 minutes. The percentage (%) of the decrease of blood pressure was determined when stabilized. Changes in heart rate (H.R.) at the administration of each test drug were measured. Furthermore,the recovery of mean blood pressure after intravenous infusion of each test drug was also determined from the decrease in heart rate and the blood pressure at a maximum dose of each test drug.

rats [2] = assay: Recovery of blood pressure after gradual hypotension in rats; format: in vivo, male SD rats; conditions: rat
Procedure: FIG. 1 is a graph showing the recovery of the blood pressure of rats anesthetized with enflurane with time, when each of Ap4A ( ), PG E1 ( ) and nitroglycerin ( ) was used as a test drug to attain gradual hypotension, with the blood pressure before the administration of each test drug being set 100% for reference.
The recovery of blood pressure after gradual hypotension by use of each of Ap4A, PG E1 and nitroglycerin was also tested.
as §1
In a test similar to the above, each of Ap4A, PG E1, and nitroglycerin was administered to rats, so that about 65% fall in blood pressure, about 55% fall in blood pressure, and about 35% fall in blood pressure were stepwise attained. With respect to each agent, the recovery of blood pressure was tested.

[3] = words; cited from earlier work
[4] = enflurane, at -20% blood pressure

Structure (SMILES): O=[N+]([O-])OCC(CO[N+](=O)[O-])O[N+](=O)[O-] [nitroglycerin, reference compound]
- fall in blood pressure attainable (dogs; enflurane): ~30%
- Arterial Carbonate Tension PaCO2 (dogs; [4]): 36.4 ± 1.6 mmHg
- Arterial Oxygen Tension PaO2 (dogs; [4]): 229.9 ± 2.7 mmHg
- Arterial pH (pH-a) (dogs; [4]): 7.315 ± 0.020
- Body Temperature BT (dogs; [4]): 38.6 ± 0.3 °C
- Cardiac Output C.O. (dogs; [4]): 1.58 ± 0.21 L/min
- Central Venous Pressure CVP (dogs; [4]): 2.32 ± 0.75 mmHg
- Dose (dogs; [4]): 42.2 ± 2.0 µg/kg/min
- Heart Rate H.R. (dogs; [4]): 191.7 ± 7.5 beats/min
- Hematocrit Value Hct (dogs; [4]): 42.2 ± 2.0%
- Mean Blood Pressure B.P. (mean) (dogs; [4]): 101.0 ± 1.5
- Mean Blood Pressure B.P. (Δ%) (dogs; [4]): -18.7 ± 0.9%
- Mixed Venous Carbonate Tension PvCO2 (dogs; [4]): 39.6 ± 1.6 mmHg
- Mixed Venous Oxygen Tension PvO2 (dogs; [4]): 46.5 ± 2.7 mmHg
- Mixed Venous pH (pH-v) (dogs; [4]): 7.300 ± 0.014
- Pulmonary Artery Pressure PAM (dogs; [4]): 12.8 ± 1.0 mmHg
- Pulmonary Capillary Wedge Pressure PCWP (dogs; [4]): 8.0 ± 0.6 mmHg
- effect on arterial pH / venous pH (dogs; result in words): significantly decrease arterial pH or have a tendency to decrease arterial pH
- effect on heart rate (dogs; result in words): tendency to increase the heart rate when a 20% fall in blood pressure is attained
- effect on oxygen tension (dogs; result in words): decreases PaO2
- Blood Pressure (Δ%) (rats [1]; infusion 0.03 μg/kg/min): 0%
- Heart Rate (Δ%) (rats [1]; infusion 0.03 μg/kg/min): 0%
- Blood Pressure (Δ%) (rats [1]; infusion 0.1 μg/kg/min): 0%
- Heart Rate (Δ%) (rats [1]; infusion 0.1 μg/kg/min): 0%
- Blood Pressure (Δ%) (rats [1]; infusion 0.3 μg/kg/min): -1.0 ± 1.0%
- Heart Rate (Δ%) (rats [1]; infusion 0.3 μg/kg/min): -0.3 ± 0.5%
- Blood Pressure (Δ%) (rats [1]; infusion 1 μg/kg/min): -7.5 ± 3.2%
- Heart Rate (Δ%) (rats [1]; infusion 1 μg/kg/min): -1.5 ± 1.1%
- Blood Pressure (Δ%) (rats [1]; infusion 3 μg/kg/min): -16.4 ± 4.4%
- Heart Rate (Δ%) (rats [1]; infusion 3 μg/kg/min): -6.5 ± 2.3%
- Blood Pressure (Δ%) (rats [1]; infusion 10 μg/kg/min): -24.7 ± 4.4%
- Heart Rate (Δ%) (rats [1]; infusion 10 μg/kg/min): -13.9 ± 4.0%
- Blood Pressure (Δ%) (rats [1]; infusion 30 μg/kg/min): -27.6 ± 5.2%
- Heart Rate (Δ%) (rats [1]; infusion 30 μg/kg/min): -13.8 ± 4.7%
- recovered blood pressure (before administration = 100%), plateau (rats [2]; plateau): about 85%
- fall in blood pressure attained before recovery (rats [2]; stepwise): about 35%
- rapidness of the recovery of blood pressure (rats [2]; order in words): Ap4A>PG E1 >nitroglycerin
- shortcomings / adverse effects [3]: congestion by the expansion of vanation, and tachycardia are caused; also recorded: sthenia of brain pressure is caused; also recorded: the arterial oxygen tension (PaO2) is decreased during hypotensive anesthesia
